Consider one molecule from patent US20200290950A1, “ALKAMIDE COMPOUNDS AND USES THEREOF” (NORTH CAROLINA STATE UNIVERSITY, priority 2017, published 2020).

SMILES strings stand for the structures.

For test [1], the system named is RBL-2H3 cells. The test can be described thus: β-hexosaminidase degranulation assay, RBL-2H3 cells (Example 1). It is filed as cell-based, rat. The method, then: FIGS. 1A-1F. A15 inhibits BMMC and RBL-2H3 cell degranulation. The structure of alkamide A15 is shown with different functional groups and carbons in the fatty acid chain labeled (FIG. 1A). BMMCs were plated and stimulated 4 hrs later with 1 μM A23187 and the indicated concentrations of A15 or vehicle only. The percent degranulation was measured after 1 hr (FIG. 1B). RBL-2H3 cells were treated with A23187 and the percent degranulation was determined 1 hr later (FIG. 1C) or every 10 min over a 1 hr time course (FIG. 1D). RBL-2H3 cells were plated and incubated for 4 hrs before the media was aspirated and replaced with media containing 1 μg/mL IgE anti-DNP. Cells were incubated overnight and washed prior to stimulation. […] RBL-2H3 cells were stimulated for 1 hr in Tyrode's buffer before supernatants were collected and levels of histamine were measured using a competitive inhibition EIA kit (FIG. 1F). […]
FIGS. 5A-5D. […] Percent degranulation was measured 1 hr after stimulation with 1 μM A23187 in combination with vehicle only or 25 μg/mL of the indicated E. purpurea samples. […] RBL-2H3 cells were loaded with fluo-4 AM using the Fluo-4 AM Direct™ Calcium Assay Kit and fluorescence was measured on a microplate reader. […]
RBL-2H3 cell and BMMC degranulation was measured using a β-hexosaminidase (β-hex) activity assay. […] Absorbance was read at 405 nm on a BioTek Synergy HT microplate reader. […]

In test [2] the test system is RBL-2H3 cells. In words: Calcium assay, Fluo-4 (Example 3). The format is cell-based, rat. How it is done: FIGS. 22A-22D. The alkamide fatty acid is necessary for inhibition of calcium influx. RBL-2H3 cells were plated overnight, incubated with Fluo-4 AM for 1 h, stimulated by 1 μM A23187 (FIG. 22A) or 5 ng/mL DNP-BSA (FIG. 22B) in the absence or presence of each alkamide, and fluorescence was read for 2 mins every 5 secs. Data are presented as the mean change in RFU of 4 experiments. Percent inhibition of calcium influx was calculated for A23187 (FIG. 22C) and DNP-BSA (FIG. 22D) stimulated cells at 2 mins. *P<0.05, **P<0.01, and ***P<0.001 one-way ANOVA with Dunnett's post hoc test compared to A15.
RBL-2H3 cells (1.0×10^5 cells) were incubated overnight in a 96 well black-wall clear bottom plate with or without IgE-DNP (0.1 μg/mL) at 37° C. with 5% CO2. The assay was performed using the Fluo-4 Direct™ Calcium Assay Kit according to the manufacturer's instruction. Briefly, cells were incubated with the Fluo-4 Direct calcium reagent loading solution for 30 minutes at 37° C. with 5% CO2 then 30 mins at room temperature. Prior to stimulation, the well baseline fluorescence was measured every 5 seconds over 1 minute using a BioTek Synergy HT microplate reader with 485/20 nm excitation and 528/20 nm emission filters. Cells were stimulated with 1 μM A23187 or 5 ng/mL DNP (IgE-DNP) in the absence or presence of each compound, and the fluorescence was measured every 5 seconds over 2 minutes. The change in fluorescence (ΔRT) was calculated as the sample fluorescence minus the baseline fluorescence for each well.

Another test deals with β-hexosaminidase. The test can be described thus: β-hexosaminidase enzyme activity in RBL-2H3 cell lysates with p-NAG. It is filed as biochemical, rat. Conditions: 1 hr at 37° C. The method, then:
FIG. 8. […] RBL-2H3 cells were lysed with 0.1% Triton X-100 to release β-hex from the cells. Lysates were incubated for 1 hr at 37° C. with the substrate, p-NAG, in combination with the indicated concentrations of A15 or vehicle only. The absorbance at 405 nm was measured using a microplate spectrophotometer. Results shown are the means±SEM of triplicate wells from a representative experiment out of 2 independent experiments. Statistical analysis was performed using a one-way ANOVA with Dunnett's post-hoc test.

What is called inhibition is the change of the read-out against control, counted positive when it falls.

`CCCCCCC/C=C/C=C/C(=O)NCC(C)C` [A15, (2E,4E)-N-Isobutyldodeca-2,4-dienamide]: the degranulation result in the test on RBL-2H3 cells [1] (RBL-2H3 cells activated by IgE anti-DNP and DNP-BSA) was “inhibited degranulation”. In addition, in the test on RBL-2H3 cells [1] (Rattus norvegicus, A23187-stimulated RBL-2H3 cells, 100 μM, 1 hr, read-out: inhibition of release of β-hex), the inhibition at 100 µM is 48.4%. In addition, the “percent inhibition of calcium influx” value is reported as 66% in the test on RBL-2H3 cells [2] (5 ng/mL DNP-BSA, at 2 minutes) and 76% in the test on RBL-2H3 cells [2] (1 μM A23187, at 2 minutes). The “enzymatic activity of β-hex (production of chromogenic product from p-NAG)” value in the test on β-hexosaminidase is reported as “not inhibited”.
